Measured values: patent US20180251425A1, “2,3,5 TRISUBSTITUTED PYRROLE DERIVATIVES AS TOPOISOMERASE INHIBITORS AND THERAPEUTIC USES THEREOF” (UNIVERSITY OF MYSORE, priority 2015, published 2018)

How the values were obtained:
Molt4 cells [1] = assay: Mitochondrial membrane potential assay (JC-1); assay type: cell-based, Human; details: Molt4 cells, 0.1, 0.25 and 0.5 μM, 48 h
Experimental: Molt4 cells were seeded in 12 well plate (0.5×10^5 cells/ml), treated with different concentration of ASR6 for 48 h, (DMSO treated cells was used as vehicle control), washed with 1× phosphate buffered saline and stained with JC-1 dye (5,5′,6,6′-Tetrachloro-1,1′,3,3′-tetraethylbenzimidazolo carbocyanine iodide (0.5 μg/ml) (Calbiochem, USA) in 1 ml of media, incubated at 37° C. for 30 min. Samples were washed with phosphate buffered saline and finally resuspended the cell pellet in 300 μl of 1× phosphate buffered saline and acquired (FACSVerse™, BD Biosciences, USA) using Cell Quest Pro Software. Minimum of 10,000 cells were acquired per sample and 2, 4-Dinitrophenol (2, 4-DNP) used as positive control. Results were analyzed Flowing Software (Version 2.5) and data were presented.

Molt4 cells [2] = assay: Annexin V-FITC/PI staining for apoptosis; assay type: cell-based, Human; details: 0.25 & 0.5 μM, 48 h
Experimental: To identify induction of apoptosis after treatment withASR6 in Molt4 cells, annexin V-FITC and propidium iodide staining was carried out. Briefly, Molt4 cells (0.5×10^5 cells per ml) were seeded in 24 well plate and treated with ASR6 (0.25 & 0.5 μM; 48 h). Cells were washed with 1× phosphate buffered saline and suspended in cell binding buffer, stained with Annexin V-FITC (0.2 mg/ml) and propidium iodide (0.05 mg/ml)(Santacruz, USA), and incubated in dark for 20 min at room temperature. Finally cells were subjected to FACS analysis (FACSVerse™BD Bioscience, USA) (10,000 cells were acquired). The results were analyzed in WinMDI 2.9 Software, bar diagram was plotted using at least two independent experiments with error bar.

[3] = target: T1, recombinant human DNA topoisomerase I (Homo sapiens, UniProt P11387); assay: Topoisomerase I DNA relaxation assay; assay type: biochemical; details: 0, 10, 25, 50 and 100 μM, supercoiled pBS-SK+ plasmid, 37° C. 30 min
T1 construct: purchased TopoGEN; Inc
T1 sequence (P11387 1-765): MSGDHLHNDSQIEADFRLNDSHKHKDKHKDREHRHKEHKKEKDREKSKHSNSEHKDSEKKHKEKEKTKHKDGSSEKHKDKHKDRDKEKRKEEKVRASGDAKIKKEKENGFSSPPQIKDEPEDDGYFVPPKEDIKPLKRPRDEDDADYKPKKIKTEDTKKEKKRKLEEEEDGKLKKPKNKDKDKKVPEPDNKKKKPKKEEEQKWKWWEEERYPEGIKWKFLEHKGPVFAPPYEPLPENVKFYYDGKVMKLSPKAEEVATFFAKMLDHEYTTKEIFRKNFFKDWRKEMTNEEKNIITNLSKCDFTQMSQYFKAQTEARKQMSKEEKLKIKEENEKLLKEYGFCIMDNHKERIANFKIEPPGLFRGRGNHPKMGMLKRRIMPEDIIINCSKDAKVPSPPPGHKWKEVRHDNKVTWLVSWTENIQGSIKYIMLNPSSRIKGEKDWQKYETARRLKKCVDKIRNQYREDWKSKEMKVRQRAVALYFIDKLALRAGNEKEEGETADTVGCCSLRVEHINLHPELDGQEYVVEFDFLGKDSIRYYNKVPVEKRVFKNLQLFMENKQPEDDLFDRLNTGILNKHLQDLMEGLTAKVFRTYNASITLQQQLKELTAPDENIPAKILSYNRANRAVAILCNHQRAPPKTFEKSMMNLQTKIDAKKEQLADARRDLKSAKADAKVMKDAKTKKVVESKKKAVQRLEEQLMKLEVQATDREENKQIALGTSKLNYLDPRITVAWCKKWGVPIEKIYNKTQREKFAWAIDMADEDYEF
Experimental: In order to determine the ability of ASR6 of topoisomerase I activity assay was performed, in a reaction mixture containing supercoiled plasmid DNA (pBS-SK+) was isolated using Gen Elute plasmid miniprep kit (Sigma Aldrich), according to manual instructions. ˜200 ng plasmid and two units of recombinant human DNA topoisomerase I (TopoGEN. Inc) along with the different concentrations of ASR6 (0, 10, 25, 50 and 100 μM) was added at RT for 5 min; equal amount of DMSO was used as vehicle control. Reaction was carried out at 37° C. for 30 min in a relaxation buffer 1× topoI buffer (50 mM Tris-HCl (pH 8.0), 10 mM NaCl, 10 mM MgCl2, 5 mM ATP, 0.5 mM dithiothreitol and 30 μg BSA/ml) and reactions were terminated by adding 5× stop buffer containing 5% sarkosyl, 0.0025% bromophenol blue, 25% glycerol. The DNA samples were electrophoresed on 1% agarose gel at 45 volts for 4 h with 0.5×TBE (Tris-borate-EDTA). The gels were stained for 30 min in milli Q water containing ethidium bromide (0.5 mg/ml) followed by distaining for 30 min in milli Q water and images were taken (FIG. 5). […] Topotecan (Topo I inhibitor) was used as positive control for topoisomerase I.

[4] = target: T2, recombinant human DNA topoisomerase IIα (Homo sapiens, UniProt P11388); assay: Topoisomerase IIα DNA relaxation assay; assay type: biochemical; details: 0, 10, 25, 50 and 100 μM, supercoiled pBS-SK+ plasmid, 37° C. 30 min, dose dependent
T2 construct: purchased TopoGEN; Inc
Experimental: The topoisomerase IIα assay was performed, in a reaction mixture containing supercoiled plasmid DNA (pBS-SK+) was isolated using Gen Elute plasmid miniprep kit (Sigma Aldrich), according to manual instructions. ˜200 ng plasmid and two units of recombinant human DNA topoisomerase IIα (TopoGEN. Inc) along with the different concentrations of ASR6 (0, 10, 25, 50 and 100 μM) was added at RT for 5 min; equal amount of DMSO was used as vehicle control. Reaction was carried out at 37° C. for 30 min in a relaxation buffer 1× topo II buffer (50 mM Tris-HCl (pH 8.0), 10 mM NaCl, 10 mM MgCl2, 5 mM ATP, 0.5 mM dithiothreitol and 30 μg BSA/ml) and reactions were terminated by adding 5× stop buffer containing 5% sarkosyl, 0.0025% bromophenol blue, 25% glycerol. The DNA samples were electrophoresed on 1% agarose gel at 45 volts for 4 h with 0.5×TBE (Tris-borate-EDTA). The gels were stained for 30 min in milli Q water containing ethidium bromide (0.5 mg/ml) followed by distaining for 30 min in milli Q water and images were taken. […] VP16 (Topo II inhibitor) were used as positive control (FIG. 6).

T2 sequence (P11388 whole entry): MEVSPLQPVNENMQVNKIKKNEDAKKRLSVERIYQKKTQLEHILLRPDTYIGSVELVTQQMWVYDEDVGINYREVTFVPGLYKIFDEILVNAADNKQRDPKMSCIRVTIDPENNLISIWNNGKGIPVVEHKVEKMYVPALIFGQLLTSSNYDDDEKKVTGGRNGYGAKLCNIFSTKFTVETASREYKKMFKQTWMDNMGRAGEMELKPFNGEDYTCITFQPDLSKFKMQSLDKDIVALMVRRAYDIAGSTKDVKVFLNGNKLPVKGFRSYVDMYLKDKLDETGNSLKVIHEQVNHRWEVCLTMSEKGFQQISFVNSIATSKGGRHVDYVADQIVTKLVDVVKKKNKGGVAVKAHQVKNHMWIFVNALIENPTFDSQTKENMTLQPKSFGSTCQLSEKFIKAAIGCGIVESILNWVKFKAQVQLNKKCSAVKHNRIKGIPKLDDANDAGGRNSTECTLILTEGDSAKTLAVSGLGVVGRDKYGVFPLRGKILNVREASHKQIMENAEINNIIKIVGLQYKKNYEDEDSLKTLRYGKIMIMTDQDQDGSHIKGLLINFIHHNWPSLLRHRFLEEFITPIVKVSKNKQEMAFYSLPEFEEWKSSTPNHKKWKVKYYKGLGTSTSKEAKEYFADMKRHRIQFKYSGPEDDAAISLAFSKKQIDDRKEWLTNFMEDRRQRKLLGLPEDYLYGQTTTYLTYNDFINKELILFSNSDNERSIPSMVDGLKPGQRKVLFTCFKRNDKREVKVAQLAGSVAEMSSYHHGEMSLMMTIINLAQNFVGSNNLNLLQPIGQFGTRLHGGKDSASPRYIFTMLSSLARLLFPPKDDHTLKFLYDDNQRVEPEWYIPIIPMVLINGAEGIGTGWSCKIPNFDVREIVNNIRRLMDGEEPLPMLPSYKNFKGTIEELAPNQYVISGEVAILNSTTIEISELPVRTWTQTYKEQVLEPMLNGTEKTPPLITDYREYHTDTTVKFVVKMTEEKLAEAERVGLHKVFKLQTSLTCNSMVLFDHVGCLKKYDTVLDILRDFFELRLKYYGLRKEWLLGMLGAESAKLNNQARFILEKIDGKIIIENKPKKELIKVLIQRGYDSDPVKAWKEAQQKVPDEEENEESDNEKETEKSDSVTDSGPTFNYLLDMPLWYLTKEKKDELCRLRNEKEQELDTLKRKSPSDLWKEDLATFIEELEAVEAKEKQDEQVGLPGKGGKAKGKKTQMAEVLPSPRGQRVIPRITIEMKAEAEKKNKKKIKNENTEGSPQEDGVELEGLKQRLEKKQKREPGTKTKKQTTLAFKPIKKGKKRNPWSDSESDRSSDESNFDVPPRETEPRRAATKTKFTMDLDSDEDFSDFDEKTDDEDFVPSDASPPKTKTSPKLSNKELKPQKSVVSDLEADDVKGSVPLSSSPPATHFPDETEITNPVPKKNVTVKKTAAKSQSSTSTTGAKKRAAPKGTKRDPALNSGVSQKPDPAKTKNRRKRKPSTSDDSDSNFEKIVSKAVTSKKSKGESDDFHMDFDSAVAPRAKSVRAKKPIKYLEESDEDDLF

CCOC(=O)c1[nH]c(-c2ccc(Cl)cc2)cc1-c1cccnc1 [ASR6, Ethyl 5-(4-chlorophenyl)-3-(pyridin-3-yl)-1H-pyrrole-2-carboxylate]
Mitochondrial membrane potential (Molt4 cells [1]): reduction in mitochondrial membrane potential
Apoptotic cell population (annexin V-FITC/PI) (Molt4 cells [2]): significant increase in apoptotic cell population
Inhibition of topoisomerase I activity (DNA relaxation) [3]: does not inhibit topoisomerase I activity
Inhibition of topoisomerase IIα activity (DNA relaxation) [4]: can inhibit topoisomerase Ha enzymatic activity
